Measured values published in patent publication US20250339426A1, “GCN2 MODULATOR FOR TREATING CANCER” (HIBERCELL, INC., priority 2022, published 2025).

Key:
[1] = tested on: ASNS, PSAT1, PUMA, HIF1α, HIF2a in DLD-1 tumors; assay: Tumor IHC, DLD-1 tumors; format: in vivo, BALB/c nude mice
Protocol: Immunohistochemical analysis was carried out on tumors that were collected at the end of the study described in Example 6. Formalin-fixed paraffin-embedded samples were sectioned at 5 μm thickness and mounted on Superfrost Plus microscope slides (Fisher Scientific). All immunohistochemical (IHC) staining was performed on Bond Rx auto-stainer (Leica Biosystems) using the conventional TSA-amplified detection system. Primary antibodies used were as follows: a-ASNS (Cell Signaling Technology #92479), a-PUMA (Cell Signaling Technology #98672), a-PSAT1 (Proteintech #10501-1-AP), a-PHGDH (Proteintech #14719-1-AP), HIF-1a-Novus Biologicals NB 100-479, HIF-2a-Novus Biologicals NB100-122SS, and GLUT-1-EMB Biosciences 07-1401. TSA-conjugated Alexa488, Alexa 568 and Alexa647 fluorophores from Invitrogen (#B40953, #B40956, and #B40958) were used at 1:500 dilution. Slides were counterstained with DAPI and cover slipped using Mowiol anti-fade mounting media (Sigma #D2522).
Slides were imaged with Aperio Versa 200 (Leica Biosystems) whole-slide scanner using 10×/0.32NA objective, and the data were analyzed using custom-written macros in ImageJ/FIJI (NIH). Briefly, 150 μm of outer edges of the tumor sections and necrotic regions (determined by lack of 4′,6-diamidino-2-phenylindole (DAPI) signal or presence of condensed DNA) were eliminated from the analysis. Gaussian-blurred DAPI channel was used to measure the area of the tumor tissue. Scans of immune-staining were processed to remove background, then total intensity value above appropriate threshold levels was measured and normalized to tissue area. All graphing and statistics (one-way ANOVA and pair-wise comparisons) were performed using Prism GraphPad.

[2] = tested on: TM00298 (human prostate cancer cells); assay: In vivo tumor growth inhibition, TM00298 PDX; design: species or system NSG mice; conditions: both 3 mg/kg and 30 mg/kg twice daily oral
Protocol: TM00298 (human prostate cancer cells): Male 6-8 weeks old NSG mice were inoculated subcutaneously with 1 mm^3 TM00298 tumor fragments. The treatments were started when the mean tumor size reached approximately 123 mm^3 and continued until end of study by twice daily oral gavage dosing of HC-7366 at listed doses (vehicle, 3 mg/kg HC-7366, or 30 mg/kg HC-7366, FIG. 15).
(§1) [formula] • 2.2.2 Tumor Measurements: The measurement of tumor size was conducted three times weekly with a caliper and recorded. The tumor volume (mm^3) was estimated using the formula: TV=a×b^2/2, where “a” and “b” is long and short diameters of a tumor, respectively. Tumor volume was calculated using the formula [tumor volume (mm^3)=π/6×length×width^2).
(§2) Regression was calculated using the formula=100×ΔT/T initial, if ΔT<0. Animals with 0 mm^3 tumor volume (no measurable tumor) for three consecutive measurements were considered as complete responders and animals with 50% tumor regressions were partial responders.

ATF4 = ATF4 activity assay (HEK293-ATF4-Luc, luciferase); format: cell-based; conditions: 12.5 nM Halofuginone, 6 hours, FIG. 3
Protocol: HEK293-ATF4-Luc cells were with culture medium 1.5e^5 cells/mL and 25 μL of cell suspension was added into each well of 384-well cell culture plate (Corning, CLS3570-50EA) as designated and transferred into 37° C.-5% CO2 incubator (Thermo Scientific) overnight for cell attachment. HC-7366 was serially diluted to 11 concentrations by 3-fold dilution in DMSO and 25 nL of stock was plated into cell plate by Echo550 (Labcyte, Echo550), then incubated for 30 minutes at 37° C. After HC-7366 treatment, cells were treated with either DMSO or 12.5 nM Halofuginone to activate GCN2 for 6 hours. After 6 hours, 25 μL of One-Glo reagent (Promega, cat #: E6120) was added into each well to be detected (at 1:1 to culture medium). Then the plates were placed at room temperature for 10 min followed by luciferase luminescence reading on EnVision (PerkinElmer). The data were analyzed by XLfit (v5.3.1.3), equation 201.

FaDu tumors and plasma = assay: Metabolomic analysis of tumor and plasma, FaDu tumor bearing mice; format: in vivo
Protocol: FaDu tumor bearing mice were treated with vehicle or HC-7366 (1, 3, or 30 mg/kg) twice a day orally for three days, and on the morning of Day 4 an AM dose was administered and tumors and plasma were collected 1 hr after dose. Tumor and plasma samples were extracted and split into equal parts for analysis on LC/MS/MS and Polar LC platforms. Proprietary software was used to match ions to an in-house library of standards for metabolite identification and for metabolite quantitation by peak area integration (Metabolon). Proteomic analysis on tumors was performed at MS Bioworks. The equivalent of 3 μg of peptide from each pooled fraction was analyzed by nano LC-MS/MS with a Waters M-Class HPLC system interfaced to a ThermoFisher Fusion Lumos mass spectrometer. Histograms show metabolite levels of treatment groups normalized to vehicle control (FIGS. 115-122).

[3] = tested on: OCI-AML2 (human AML cancer cells); assay: In vivo tumor growth inhibition, OCI-AML2 xenograft; design: species or system NOD SCID mice
Protocol: OCI-AML2 (human AML cancer cells): Female 6-8 weeks old NOD SCID mice were inoculated subcutaneously on the right flank with OCI-AML2 tumor cells (5×10^6) in RPMI 1640 without serum for tumor development. The treatments were started when the mean tumor size reached approximately 149 mm^3 at Day 7 after cell inoculation and continued until end of study by twice daily oral gavage dosing of HC-7366 at listed doses (vehicle, 0.3 mg/kg HC-7366, 1 mg/kg HC-7366, 3 mg/kg HC-7366, 10 mg/kg HC-7366, or 30 mg/kg HC-7366, FIG. 19).
as §1, §2

MOLM-16 xenograft tumors = assay: Metabolomic analysis of MOLM-16 xenograft tumors; format: in vivo, mice; conditions: four days
Protocol: MOLM-16 xenograft tumors were treated with Vehicle or HC-7366 (0.3, 1, 3, 10 or 30 mg/kg) for four days, and snap frozen tumors were collected for metabolomic analysis (n=12). Metabolic analysis was performed at Metabolon on the LC/MS/MS and Polar LC platforms. Data was normalized to Vehicle group and Welch's two-sample t-test was performed for statistical analysis. Heat maps show metabolite levels normalized to vehicle control (FIGS. 90, 94, 102, and 107).

[4] = end of study (day 20), bell-shaped manner
[5] = printed 'in FaDu tumors', FIGS. 29-39

Q: For CNC(=O)c1ncn2cc(-c3c(F)ccc(NS(=O)(=O)c4cc(Cl)cnc4OC)c3F)ncc12 [HC-7366, 6-(3-((5-chloro-2-methoxypyridine)-3-sulfonamido)-2,6-difluorophenyl)-N-methylimidazo[1,5-a]pyrazine-1-carboxamide], which “ASNS by IHC” value [1, 4] is on record?
A: potently induced

Q: And the “PSAT1 by IHC” value [1, 4]?
A: potently induced

Q: What about the “PUMA by IHC” value [1, 4] of the same molecule?
A: potently induced

Q: And the HIF1α protein levels [1, 5]?
A: significantly reduced

Q: And the HIF2α protein levels [1, 5]?
A: significantly reduced

Q: What about the tumor growth inhibition [2] of the same molecule?
A: ~70%

Q: What about the “ATF4 activity, cells treated with HC-7366 and Halofuginone” value (ATF4) of the same molecule?
A: GCN2 inhibitory effect

Q: What about the urea levels (FaDu tumors and plasma; plasma) of the same molecule?
A: significantly increased

Q: And the oxidized glutathione levels (FaDu tumors and plasma; tumor)?
A: significantly reduced

Q: And the reduced glutathione levels (FaDu tumors and plasma; tumor)?
A: did not alter

Q: And the “gamma glutamyl amino acid levels” value (FaDu tumors and plasma; tumor and plasma)?
A: significantly increased

Q: And the “levels of several amino acids” value (FaDu tumors and plasma; tumor and plasma, 1, 3, or 30 mg/kg twice a day, Day 4)?
A: significantly elevated

Q: What about the “levels of arginine, arginosuccinate and citrulline” value (FaDu tumors and plasma; tumors) of the same molecule?
A: significantly increased

Q: And the pyrimidine synthesis metabolites (FaDu tumors and plasma; tumors)?
A: significantly reduced

Q: And the TGI ([3]; 10 mg/kg twice daily oral)?
A: about 47%

Q: What about the TGI ([3]; 30 mg/kg twice daily oral) of the same molecule?
A: ~51%

Q: What about the “aspartate and cysteine levels” value (MOLM-16 xenograft tumors; 0.3-30 mg/kg) of the same molecule?
A: decreased

Q: What about the “glutathione levels (GSH and GSSG)” value (MOLM-16 xenograft tumors; 0.3-30 mg/kg) of the same molecule?
A: significantly reduced

Q: What about the “levels of most amino acids” value (MOLM-16 xenograft tumors; 0.3-30 mg/kg) of the same molecule?
A: significantly elevated

Q: And the “metabolites involved in pyrimidine synthesis” value (MOLM-16 xenograft tumors; 0.3-30 mg/kg)?
A: significantly reduced

Q: What about the γ-glutamyl-amino acids (MOLM-16 xenograft tumors; 0.3-30 mg/kg) of the same molecule?
A: enhanced

Q: And the “aspartate metabolism and polyamine-related metabolites (putrescine, spermine, MTA)” value (MOLM-16 xenograft tumors; all doses)?
A: significantly reduced
